Test system: SUM149PT spheroids with HUVEC/MSC, viability
Test: Anticancer human tumor SUM149PT cell line growth inhibition [GQUAD];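 also: spheroids exposed to drugs for seven days before readout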;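 as to viability, T/C: percent viability relative to DMSO vehicle control taken as 100%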
Conditions: for IC50: curve of first compound; for viability, T/C: stronger effect = lower value
Outline: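 Multi-cell-type spheroids of tumor cells with HUVEC and mesenchymal stem cells, treated with drug combinations. Concentrations descend in half-log steps from near clinical Cmax, or from 10 microM where Cmax is unknown; viability read-out.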

[1] = second compound 0.0316 µM, first compound 0.0316 µM
[2] = second compound 0.0316 µM, first compound 0.1 µM
[3] = second compound 0.0316 µM, first compound 0.316 µM
[4] = second compound 0.0316 µM, first compound 1 µM
[5] = second compound 0.0316 µM, first compound 3.16 µM
[6] = second compound 0.0316 µM, first compound 10 µM
[7] = second compound 0.1 µM, first compound 0.0316 µM
[8] = second compound 0.1 µM, first compound 0.1 µM
[9] = second compound 0.1 µM, first compound 0.316 µM
[10] = second compound 0.1 µM, first compound 1 µM
[11] = second compound 0.1 µM, first compound 3.16 µM
[12] = second compound 0.1 µM, first compound 10 µM
[13] = second compound 0.316 µM, first compound 0.0316 µM
[14] = second compound 0.316 µM, first compound 0.1 µM
[15] = second compound 0.316 µM, first compound 0.316 µM
[16] = second compound 0.316 µM, first compound 1 µM
[17] = second compound 0.316 µM, first compound 3.16 µM
[18] = second compound 0.316 µM, first compound 10 µM
[19] = second compound 1 µM, first compound 0.0316 µM
[20] = second compound 1 µM, first compound 0.1 µM
[21] = second compound 1 µM, first compound 0.316 µM
[22] = second compound 1 µM, first compound 1 µM
[23] = second compound 1 µM, first compound 3.16 µM
[24] = second compound 1 µM, first compound 10 µM
[25] = second compound 3.16 µM, first compound 0.0316 µM
[26] = second compound 3.16 µM, first compound 0.1 µM
[27] = second compound 3.16 µM, first compound 0.316 µM
[28] = second compound 3.16 µM, first compound 1 µM
[29] = second compound 3.16 µM, first compound 3.16 µM
[30] = second compound 3.16 µM, first compound 10 µM
[31] = second compound 10 µM, first compound 0.0316 µM
[32] = second compound 10 µM, first compound 0.1 µM
[33] = second compound 10 µM, first compound 0.316 µM
[34] = second compound 10 µM, first compound 1 µM
[35] = second compound 10 µM, first compound 3.16 µM
[36] = second compound 10 µM, first compound 10 µM

For `C=CC(=O)N1CCN(c2nc(=O)n(-c3c(C)ccnc3C(C)C)c3nc(-c4c(O)cccc4F)c(F)cc23)C(C)C1` (stereo unspecified) + Cc1cnc(CNC(=O)c2c(=O)c3ccc(N4CCCN(C)CC4)nc3n3c2sc2ccccc23)cn1, the IC50 (second compound 0.0316 µM) was > 10000 nM, the IC50 (second compound 0.1 µM) was > 10000 nM and the IC50 (second compound 0.316 µM) was > 10000 nM. For the same compound, the IC50 (second compound 1 µM) was < 31.6 nM, the IC50 (second compound 3.16 µM) was < 31.6 nM and the IC50 (second compound 10 µM) was < 31.6 nM. For the same compound, the viability, T/C [1] was 92.7%, the viability, T/C [2] was 82.8% and the viability, T/C [3] was 103%. It also gave a viability, T/C [4] of 103%, a viability, T/C [5] of 123% and a viability, T/C [6] of 106%. The viability, T/C [7] was 62.4%, the viability, T/C [8] was 66.6% and the viability, T/C [9] was 76.5%. It also gave a viability, T/C [10] of 77.1%, a viability, T/C [11] of 85.4% and a viability, T/C [12] of 70%. It also gave a viability, T/C [13] of 61.9%, a viability, T/C [14] of 54.8% and a viability, T/C [15] of 56.5%. It also gave a viability, T/C [16] of 65.9%, a viability, T/C [17] of 66.9% and a viability, T/C [18] of 59.3%. It also gave a viability, T/C [19] of 50%, a viability, T/C [20] of 46.1% and a viability, T/C [21] of 48.7%. For the same compound, the viability, T/C [22] was 51.6%, the viability, T/C [23] was 56.3% and the viability, T/C [24] was 46.7%. It also gave a viability, T/C [25] of 40.7%, a viability, T/C [26] of 38.4% and a viability, T/C [27] of 42.5%. It also gave a viability, T/C [28] of 45.6%, a viability, T/C [29] of 47% and a viability, T/C [30] of 41.2%. For the same compound, the viability, T/C [31] was 0.28%, the viability, T/C [32] was 2.73% and the viability, T/C [33] was 1.23%. It also gave a viability, T/C [34] of 2.1%, a viability, T/C [35] of 3.34% and a viability, T/C [36] of 0.29%.
`O=c1[nH]cc(F)c(=O)[nH]1` + Cc1cnc(CNC(=O)c2c(=O)c3ccc(N4CCCN(C)CC4)nc3n3c2sc2ccccc23)cn1 gave an IC50 (second compound 0.0316 µM) of 2630 nM, an IC50 (second compound 0.1 µM) of 2120 nM and an IC50 (second compound 0.316 µM) of 1500 nM. The IC50 (second compound 1 µM) was < 31.6 nM, the IC50 (second compound 3.16 µM) was < 31.6 nM and the IC50 (second compound 10 µM) was < 31.6 nM. For the same compound, the viability, T/C [1] was 86.5%, the viability, T/C [2] was 86.4% and the viability, T/C [3] was 99.3%. It also gave a viability, T/C [4] of 75.6%, a viability, T/C [5] of 46.1% and a viability, T/C [6] of 34.8%. The viability, T/C [7] was 73.6%, the viability, T/C [8] was 64% and the viability, T/C [9] was 82.7%. The viability, T/C [10] was 67.2%, the viability, T/C [11] was 40.8% and the viability, T/C [12] was 32%. It also gave a viability, T/C [13] of 51.1%, a viability, T/C [14] of 61.2% and a viability, T/C [15] of 55%. The viability, T/C [16] was 55.2%, the viability, T/C [17] was 40.5% and the viability, T/C [18] was 31.2%. For the same compound, the viability, T/C [19] was 43.4%, the viability, T/C [20] was 43.5% and the viability, T/C [21] was 51.5%. It also gave a viability, T/C [22] of 40.9%, a viability, T/C [23] of 35.8% and a viability, T/C [24] of 29.4%. For the same compound, the viability, T/C [25] was 38.2%, the viability, T/C [26] was 36.2% and the viability, T/C [27] was 38.7%. For the same compound, the viability, T/C [28] was 36.5%, the viability, T/C [29] was 36% and the viability, T/C [30] was 30.3%. The viability, T/C [31] was 18.6%, the viability, T/C [32] was 9.86% and the viability, T/C [33] was 31.9%. The viability, T/C [34] was 31.5%, the viability, T/C [35] was 11% and the viability, T/C [36] was 2.12%.
With `CCc1c2c(nc3ccc(O)cc13)-c1cc3c(c(=O)n1C2)COC(=O)[C@]3(O)CC` + CN(C)c1ccc(Nc2c3ccc(NC(=O)CCN4CCCC4)cc3nc3cc(NC(=O)CCN4CCCC4)ccc23)cc1 the IC50 (second compound 0.0316 µM) was 11.9 nM, the IC50 (second compound 0.1 µM) was 14.8 nM and the IC50 (second compound 0.316 µM) was 6.28 nM. It also gave an IC50 (second compound 1 µM) of 6.73 nM, an IC50 (second compound 3.16 µM) of 5.8 nM and an IC50 (second compound 10 µM) of 6.81 nM. The viability, T/C (second compound 0.0316 µM, first compound 0.000999 µM) was 80%, the viability, T/C (second compound 0.0316 µM, first compound 0.00316 µM) was 44% and the viability, T/C (second compound 0.0316 µM, first compound 0.00999 µM) was 54.6%. The viability, T/C [1] was 45.9%, the viability, T/C (second compound 0.0316 µM, first compound 0.0999 µM) was 38.9% and the viability, T/C [3] was 20.7%. The viability, T/C (second compound 0.1 µM, first compound 0.000999 µM) was 70.2%, the viability, T/C (second compound 0.1 µM, first compound 0.00316 µM) was 45.6% and the viability, T/C (second compound 0.1 µM, first compound 0.00999 µM) was 52.8%. The viability, T/C [7] was 48.1%, the viability, T/C (second compound 0.1 µM, first compound 0.0999 µM) was 41.6% and the viability, T/C [9] was 23.5%. The viability, T/C (second compound 0.316 µM, first compound 0.000999 µM) was 64.1%, the viability, T/C (second compound 0.316 µM, first compound 0.00316 µM) was 45.7% and the viability, T/C (second compound 0.316 µM, first compound 0.00999 µM) was 45.3%. It also gave a viability, T/C [13] of 47.5%, a viability, T/C (second compound 0.316 µM, first compound 0.0999 µM) of 37.7% and a viability, T/C [15] of 26%. For the same compound, the viability, T/C (second compound 1 µM, first compound 0.000999 µM) was 63.8%, the viability, T/C (second compound 1 µM, first compound 0.00316 µM) was 42.2% and the viability, T/C (second compound 1 µM, first compound 0.00999 µM) was 47.2%. It also gave a viability, T/C [19] of 48.8%, a viability, T/C (second compound 1 µM, first compound 0.0999 µM) of 35.5% and a viability, T/C [21] of 23.5%. The viability, T/C (second compound 3.16 µM, first compound 0.000999 µM) was 64.1%, the viability, T/C (second compound 3.16 µM, first compound 0.00316 µM) was 42.1% and the viability, T/C (second compound 3.16 µM, first compound 0.00999 µM) was 47.2%. The viability, T/C [25] was 46.1%, the viability, T/C (second compound 3.16 µM, first compound 0.0999 µM) was 35.6% and the viability, T/C [27] was 23.5%. The viability, T/C (second compound 10 µM, first compound 0.000999 µM) was 67.2%, the viability, T/C (second compound 10 µM, first compound 0.00316 µM) was 39.2% and the viability, T/C (second compound 10 µM, first compound 0.00999 µM) was 49.1%. The viability, T/C [31] was 46.8%, the viability, T/C (second compound 10 µM, first compound 0.0999 µM) was 37.2% and the viability, T/C [33] was 22.4%.

From PubChem BioAssay AID2060484 (Molecular Pharmacology Branch, DTP, NCI, 2025)
